In ChEMBL document CHEMBL1153125, “Benzylidene cyclopentenediones: First irreversible inhibitors against botulinum neurotoxin A's zinc endopeptidase” (Bioorg Med Chem Lett, 2010) one finds Ratio, Selectivity ratio and IC50 data, which are given here for five molecules.

Assay [1] addresses Botulinum neurotoxin type A (Clostridium botulinum) (UniProt P0DPI0). Put plainly: Ratio of Kinact to Ki for Clostridium botulinum BoNT/A.
Assay [2] addresses Matrix metalloproteinase-9 (Homo sapiens) (UniProt P14780). As to the kind of experiment: Ratio of Kinact to Ki for MMP9.
Assay [3] has as its target 72 kDa type IV collagenase (Homo sapiens) (UniProt P08253). As to the kind of experiment: Ratio of Kinact to Ki for MMP2.
A short description of assay [4]: Selectivity for Clostridium botulinum BoNT/A over MMP9.
Assay [5] has as its target Botulinum neurotoxin type A (Clostridium botulinum, UniProt P0DPI0). Put plainly: Inhibition of Clostridium botulinum BoNT/A.

Chain of Botulinum neurotoxin type A (Clostridium botulinum) (P0DPI0 2-448 limits assumed): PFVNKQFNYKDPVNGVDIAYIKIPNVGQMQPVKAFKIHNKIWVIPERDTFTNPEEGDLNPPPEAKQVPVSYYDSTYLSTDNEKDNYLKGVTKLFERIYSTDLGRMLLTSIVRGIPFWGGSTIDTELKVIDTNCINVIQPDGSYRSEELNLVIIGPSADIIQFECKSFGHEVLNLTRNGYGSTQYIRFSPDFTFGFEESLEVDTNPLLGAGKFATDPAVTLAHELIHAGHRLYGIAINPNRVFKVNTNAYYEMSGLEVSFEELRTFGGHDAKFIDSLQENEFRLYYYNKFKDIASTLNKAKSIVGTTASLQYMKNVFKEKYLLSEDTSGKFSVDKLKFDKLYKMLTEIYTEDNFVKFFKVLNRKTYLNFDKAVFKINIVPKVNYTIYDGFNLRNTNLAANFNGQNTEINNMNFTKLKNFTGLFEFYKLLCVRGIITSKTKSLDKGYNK
Chain of Matrix metalloproteinase-9 (Homo sapiens) (P14780 whole entry): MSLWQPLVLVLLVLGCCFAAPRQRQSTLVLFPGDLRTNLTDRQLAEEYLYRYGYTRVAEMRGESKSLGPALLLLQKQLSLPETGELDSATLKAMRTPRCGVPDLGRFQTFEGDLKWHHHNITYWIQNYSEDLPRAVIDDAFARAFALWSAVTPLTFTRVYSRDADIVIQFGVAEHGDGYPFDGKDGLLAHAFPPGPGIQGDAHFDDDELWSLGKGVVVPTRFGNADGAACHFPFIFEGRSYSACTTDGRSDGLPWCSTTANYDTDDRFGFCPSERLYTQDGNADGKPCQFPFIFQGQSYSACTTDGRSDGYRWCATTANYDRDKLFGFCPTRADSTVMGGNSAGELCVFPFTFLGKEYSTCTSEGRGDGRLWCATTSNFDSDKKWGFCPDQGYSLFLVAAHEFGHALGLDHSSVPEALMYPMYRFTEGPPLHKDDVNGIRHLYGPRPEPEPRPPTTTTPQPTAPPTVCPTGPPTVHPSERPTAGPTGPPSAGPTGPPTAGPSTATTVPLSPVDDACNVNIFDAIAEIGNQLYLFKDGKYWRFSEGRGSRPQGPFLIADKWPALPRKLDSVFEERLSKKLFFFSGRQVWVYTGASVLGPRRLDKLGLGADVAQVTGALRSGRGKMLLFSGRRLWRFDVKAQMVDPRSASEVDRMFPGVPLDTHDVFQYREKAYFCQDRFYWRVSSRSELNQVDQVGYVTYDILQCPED
Chain of Botulinum neurotoxin type A (P0DPI0 2-448 limits assumed): as the sequence (P0DPI0 2-448 limits assumed) above
Chain of 72 kDa type IV collagenase (Homo sapiens) (P08253 110-660 limits assumed): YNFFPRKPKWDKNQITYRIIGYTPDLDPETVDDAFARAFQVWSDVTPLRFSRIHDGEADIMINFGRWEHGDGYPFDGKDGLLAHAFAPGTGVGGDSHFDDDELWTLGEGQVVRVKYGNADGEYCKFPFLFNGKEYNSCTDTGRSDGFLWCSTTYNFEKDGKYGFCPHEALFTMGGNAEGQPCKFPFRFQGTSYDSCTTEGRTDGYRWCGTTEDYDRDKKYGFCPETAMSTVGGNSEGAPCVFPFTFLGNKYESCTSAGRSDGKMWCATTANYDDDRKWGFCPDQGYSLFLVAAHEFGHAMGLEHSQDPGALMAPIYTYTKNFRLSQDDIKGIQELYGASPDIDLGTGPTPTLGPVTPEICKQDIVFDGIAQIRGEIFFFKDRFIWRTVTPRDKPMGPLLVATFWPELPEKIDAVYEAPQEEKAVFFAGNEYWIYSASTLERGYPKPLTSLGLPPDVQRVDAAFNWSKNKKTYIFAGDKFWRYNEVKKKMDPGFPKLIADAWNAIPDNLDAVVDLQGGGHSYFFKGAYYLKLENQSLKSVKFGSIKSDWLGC

Take `CCCCCc1ccc(C=C2C(=O)C=CC2=O)cc1`: in assay [1], the Ratio was 80.
`O=C1C=CC(=O)C1=Cc1ccc(Cl)cc1Cl`: the Ratio in assay [2] was 61; in assay [3], less than 33; in assay [1], 520. For the same molecule, the Selectivity ratio in assay [4] was determined as 9.
One may read the IC50 as the concentration that gives 50% inhibition. For `Cc1cc(Cl)ccc1/C=C/C(=O)NO`, inhibition in assay [5] was half-maximal at 0.8 µM (IC50).
Same read-out and setting: to `CCCCCc1ccc(C(=O)NO)cc1` belongs 41 µM.
For `Cc1cc(Cl)ccc1C=C1C(=O)C=CC1=O`, the Ratio was 58 in assay [2] and 580 in assay [1]. In addition, the Selectivity ratio in assay [4] turned out to be 9.
